Experiment [1] deals with deep endometriosis. Put plainly: Therapy of deep endometriosis (1), single patient, vaginal rings. It counts as in vivo, human. From the text:
A patient suffered from intensive menstrual pain by deep endometriosis was subjected to the treatment using the therapeutic agent according to the present invention.

Experiment [2] has as its system uterine adenomyosis. The experiment is described as follows: Therapy of uterine adenomyosis (2), patient series with intrauterine devices. The class given is in vivo, human. How it is done:
An intrauterine device (IUD) containing 600 μg to 900 μg of 3-ethylpyridine was inserted for 6 months […] of each of patients (12 cases) having uterine adenomyosis recurring after the nasal administration or injection of GnRH analogs.

The subject of experiment [3] is uterine adenomyosis. Put plainly: Therapy of uterine adenomyosis (1), single patient. The class given is in vivo, human. From the text: A patient having uterine adenomyosis was subjected to the treatment using the therapeutic agent according to the present invention. The patient had been subjected to injection of Leuplin, which was a therapeutic drug for endometriosis at one time per a month continuously for six months. However, the disease was not cured. Then, the uterus was enlarged to have a size corresponding to the third month of pregnancy, and menstrual pain was severe, and a menstrual bleeding was abundant. Moreover, CA125 in the blood indicated 441 units (the normal units are 35 units or less) and CA602 indicated 1025 units (the normal value is 63 units or less). The indicated values were abnormally high.
The menstrual pain and the hypermenorrhea disappeared. Moreover, CA125 in the blood was reduced to be 38 units and CA602 was reduced to 53 units after 60 days from the initiation of the administration. Accordingly, it can be said that the uterine adenomyosis was fully cured.

A further experiment relates to ovarian chocolate cyst. The experiment is described as follows: Therapy of ovarian chocolate cyst, injection into aspirated cyst. The class given is in vivo, human. From the text:
A patient having ovarian chocolate cyst was subjected to the treatment using the therapeutic agent according to the present invention. In this patient, by transvaginal ultrasonic diagnosis, the cyst having a diameter of 6 cm was recognized in Cul-de-Sac. Moreover, CA125 in the blood indicated 1522 units and CA602 indicated 352 units (the normal value is 63 units or less). The indicated values were abnormally high. It was confirmed that the distance from the vaginal fornix to cyst was within 1 cm, and under observation with a transvaginal ultrasonography, the cyst content was punctured with a needle from the posterior vaginal fornix and was aspirated. Then, the 2 mL ethanol solution containing 2 mg of 3-ethyl pyridine was injected. As a result, the ovarian chocolate cyst disappeared four weeks after the injection. The uterus was scaled down to 2.5 cm. The menstrual pain disappeared. Moreover, CA125 in the blood was lowered to be 52 units and CA602 was lowered to be 61 units.
In addition to the above case, patients of other 12 cases having chocolate cysts were subjected to the following treatment. That is, under a transvaginal ultrasonic guide, the ovarian chocolate cyst having a distance within 10 mm from the posterior vaginal fornix was punctured and the cyst content was aspirated and then the 3 mL ethyl ether solution containing 3 mg of 3-ethylpyridine was injected into the cyst. As a result, in all 12 cases, the ovarian chocolate cyst was scaled down, and at the same time, the menstrual pain disappeared in eight cases, and, improved in three cases. […] In addition, existence of malignant cells in the aspirated cystic content was denied by cytodiagnosis.

The next experiment has as its system vaginal endometriosis. Put plainly: Therapy of vaginal endometriosis, vaginal ring. The class given is in vivo, human. How it is done:
A patient having endometriosis recurred after operation of the left ovary and Cul-de-Sac endometriosis was subjected to the treatment using the therapeutic agent according to the present invention. In the patient with an induration about 7 cm×about 5 cm in a deep right posterior fornix of the vagina. […] Moreover, menstrual pain, extramenstrual pain, severe lower abdominal pain, defecation pain, and coital pain were recognized. Accordingly, the above-described doughnut-type ring containing 9 mg 3-ethylpyridine was inserted into the posterior vaginal fornix. As a result, four weeks after the insertion, the coital pain, the defecation pain, the extramenstrual lower abdominal pain and low back pain disappeared, and the menstrual pain was reduced. The induration at the right posterior fornix of the vagina was scaled down to 4 cm×2 cm. Then, by continuous treatment, the induration at the right posterior fornix of the vagina was further scaled down to have 2 cm×1 cm. In addition to the above case, with respect to each of patients of other two cases having endometriosis, the pathological endometriosis was confirmed by biopsy and then, a vaginal ring containing 8 to 10 mg of 3-ethylpyridine was inserted into the vagina.

Experiment [4] has as its system deep endometriosis. Put plainly: Therapy of deep endometriosis (2), 18 cases, vaginal ring. It counts as in vivo, human. How it is done: A vaginal ring containing 8 to 10 mg of 3-ethylpyridine was inserted into the vagina of each of deep endometriosis patients (18 cases) for 3 months. As a result, disappearance of pressure pain and induration in Cul-de-Sac was recognized in 9 cases, and improvement thereof was recognized in 7 cases, and nullity thereof was recognized in 2 cases. The menstrual pain disappeared in 4 cases, and improved in 13 cases and null in only one case. A coital pain disappeared in 10 cases and a defecation pain was improved in 7 cases.

Experiment [5] deals with chorioallantoic membrane of chicken. The conditions noted are these: Lin J. et al. 2002; G. Melkonian et al. 2004; cited from earlier work.
[6] abbreviates: vaginal ring 1,000 mg danazol for 6 months.
[7] abbreviates: other 12 cases, 3 mL ethyl ether solution containing 3 mg.
The mark [8] stands for this setting: single patient, 2 mL ethanol solution containing 2 mg injected.
Where [9] appears, read: doughnut-type ring 9 mg, four weeks after insertion.
The mark [10] stands for this setting: other two cases, vaginal ring containing 8 to 10 mg.
Where [11] appears, read: vaginal ring 8 to 10 mg for 3 months.
The mark [12] stands for this setting: IUD-type device containing 825 μg.
The mark [13] stands for this setting: IUD-type device containing 825 μg inserted into the uterus.
Setting [14] is: vaginal ring 10 mg 3-ethylpyridine, after the danazol ring.
Setting [15] is: IUD containing 600 μg to 900 μg, 6 months, 12 cases.

Take `C#C[C@]1(O)CC[C@H]2[C@@H]3CCC4=Cc5oncc5C[C@]4(C)[C@H]3CC[C@@]21C` [danazol, reference compound]: the “CA125 in the blood” value with deep endometriosis [1] (patient, vaginal ring containing 1,000 mg danazol for 6 months, from 950 units) was 620 units. In addition, in the experiment with deep endometriosis [1] (setting [6]), the menstrual pain result is “reduced but not fully cured” and the “painful induration in Cul-de-Sac” value is “not scaled down”. Moreover, the uterine adenomyosis outcome in the experiment on uterine adenomyosis [2] (earlier treatment with IUDs containing danazol, the 55 cases) was “not cured”.
As for `CCNC(=O)[C@@H]1CCCN1C(=O)[C@H](CCCNC(=N)N)NC(=O)[C@H](CC(C)C)NC(=O)[C@@H](CC(C)C)NC(=O)[C@H](Cc1ccc(O)cc1)NC(=O)[C@H](CO)NC(=O)[C@H](Cc1c[nH]c2ccccc12)NC(=O)[C@H](Cc1c[nH]cn1)NC(=O)[C@@H]1CCC(=O)N1` [Leuplin, reference compound], in the experiment with uterine adenomyosis [3] (patient, injection one time per month continuously for six months), the “disease (uterine adenomyosis) outcome” value is listed as “not cured”.
Take `CCc1cccnc1` [3-ethylpyridine]: in the experiment with ovarian chocolate cyst (setting [7]), the “cyst enlarged again after the six months” value was “three”, the menstrual pain disappeared entry was “eight” and the menstrual pain improved entry is reported as “three”. Also, the “ovarian chocolate cyst scaled down” value with ovarian chocolate cyst (other 12 cases, 3 mL ethyl ether solution containing 3 mg injected into the cyst) is recorded as 12 cases. In the experiment with ovarian chocolate cyst (single patient, 2 mg injected, before 352 units, normal 63 units or less), the “CA602 in the blood” value came to 61 units. In addition, in the experiment on ovarian chocolate cyst (single patient, 2 mg injected, before 1522 units), the “CA125 in the blood” value was 52 units. In the experiment on ovarian chocolate cyst (setting [8]), the menstrual pain result is on record as “disappeared” and the “uterus scaled down to” value came to 2.5 cm. Further, the ovarian chocolate cyst entry with ovarian chocolate cyst (single patient, 2 mL ethanol solution containing 2 mg injected after aspiration, four weeks after injection, cyst diameter 6 cm before) was “disappeared”. In the experiment on ovarian chocolate cyst (the three cases enlarged again after six months), the “ovary chocolate cyst outcome after repeated puncture and injection” value was “could be cured”. For the same compound, in the experiment on vaginal endometriosis (setting [9]), the defecation pain entry is “disappeared”; the “extramenstrual lower abdominal pain and low back pain” value is on record as “disappeared”; the menstrual pain entry is listed as “reduced”. In addition, in the experiment with vaginal endometriosis (setting [10]), the “menstrual pain and defecation pain” value is recorded as “disappeared in all the cases”; the vaginal endometriosis result is “disappeared macroscopically and histologically in all two cases”. Besides, the coital pain result in the experiment on vaginal endometriosis (patient, doughnut-type ring containing 9 mg in posterior vaginal fornix, four weeks after insertion) is “disappeared”. Further, in the experiment on deep endometriosis [4] (setting [11]), the coital pain disappeared amounted to 10 cases; the defecation pain improved was determined as 7 cases; the “improvement of pressure pain and induration in Cul-de-Sac” value is 7 cases; the menstrual pain disappeared is recorded as 4 cases. For the same compound, in the experiment with deep endometriosis [4] (setting [11]), the menstrual pain improved turned out to be 13 cases; the menstrual pain null entry was “one”; the “nullity (no effect) on pressure pain and induration in Cul-de-Sac” value turned out to be 2 cases. Moreover, in the experiment on deep endometriosis [4] (vaginal ring containing 8 to 10 mg for 3 months), the “disappearance of pressure pain and induration in Cul-de-Sac” value turned out to be 9 cases. For the same compound, the “growth of chorioallantoic membrane of chicken” value in experiment [5] is “inhibits the growth”. The “CA125 in the blood” value in the experiment with uterine adenomyosis [3] (IUD-type device 825 μg, after 60 days from initiation, before 441 units, normal 35 units or less) came to 38 units. Also, in the experiment with uterine adenomyosis [3] (IUD-type device 825 μg, after 60 days from initiation, before 1025 units, normal 63 units or less), the “CA602 in the blood” value was 53 units. In the experiment on uterine adenomyosis [3] (setting [12]), the “recurrence after suspension of the treatment” value is “not recognized” and the uterine adenomyosis outcome is “fully cured”. For the same compound, in the experiment on uterine adenomyosis [3] (setting [13]), the hypermenorrhea result is on record as “disappeared” and the menstrual pain entry was “disappeared”. For the same compound, the “size of the uterine corpus” value in the experiment on uterine adenomyosis [3] (IUD-type device containing 825 μg inserted into the uterus, six months after insertion, before: size of third month of pregnancy) is “scaled down to a normal size”. In the experiment on deep endometriosis [1] (setting [14]), the “induration in Cul-de-Sac” value was “not scaled down” and the menstrual pain entry is listed as “further decreased”. Further, the “CA125 in the blood” value with deep endometriosis [1] (vaginal ring containing 10 mg 3-ethylpyridine, after the danazol ring, in 3 months, from 620 units) was 250 units. In addition, in the experiment on uterine adenomyosis [2] (setting [15]), the menstrual pain disappeared entry is “eight”; the menstrual pain improved entry is “four”; the therapeutic effect result is listed as “in all the cases, therapeutic effect was recognized”. Also, the hypermenorrhea disappeared result in the experiment on uterine adenomyosis [2] (IUD containing 600 μg to 900 μg, 6 months, 12 cases recurring after GnRH analogs) is “nine”.

These data come from patent US20080182830A1, “Agent for Treatment and Prevention of Endometriosis and Uterine Adenomyosis” (priority 2005, published 2008).
